Test results taken from patent US5294617A, “Angiotensin II receptor blocking 2,3,6 substituted quinazolinones” (American Cyanamid Company, priority 1993, dated 1994).

Target: T1, Angiotensin II Receptor (Bos taurus, UniProt P25104)
T1 construct: The brownish tissue forming the adrenal cortex is scraped off and finely minced with scissors before homogenization; tissue local slaughter house (Maxwell--Cohen); host or cells: beef adrenal cortex, microsomal membranes (100,000×g pellet)
T1 sequence (P25104 1-359): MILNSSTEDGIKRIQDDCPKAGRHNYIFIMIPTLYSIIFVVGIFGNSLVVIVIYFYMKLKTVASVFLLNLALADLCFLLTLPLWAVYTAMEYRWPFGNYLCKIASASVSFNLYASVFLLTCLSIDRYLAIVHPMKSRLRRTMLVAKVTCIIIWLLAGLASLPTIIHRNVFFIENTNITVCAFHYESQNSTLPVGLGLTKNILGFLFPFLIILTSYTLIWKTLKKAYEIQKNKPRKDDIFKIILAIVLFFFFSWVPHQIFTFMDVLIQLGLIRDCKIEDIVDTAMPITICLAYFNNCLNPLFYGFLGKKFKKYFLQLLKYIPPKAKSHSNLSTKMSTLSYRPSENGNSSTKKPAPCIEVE
Assay: Receptor Binding Assay: binding of [125I](Sar1,Ile8)AngII to beef adrenal cortex membranes
Settings: radioligand, beef adrenal membranes; non-specific with 1.0 uM unlabeled (Sar1,Ile8)AngII
Source text: [^125 I](Sar^1,Ile^8)AngII, S.A. 2200 Ci/mmole, is purchased from Dupont (NEN®, Boston, Mass.). All unlabeled AngII analogs, Dimethylsulfoxide (DMSO), nucleotides, bovine serum albumin (BSA) are purchased from Sigma Chemical Co., St. Louis, Mo. U.S.A.
Approximately sixteen (16) to twenty (20) beef adrenal glands are processed as follows: fresh adrenal glands received on crushed ice are cleaned of fatty tissues and the tough membranes encapsulating the glands are removed and discarded. The brownish tissue forming the adrenal cortex is scraped off and finely minced with scissors before homogenization. Care is taken to avoid contamination with medullary tissue during dissection. The scraped cortices are suspended in twenty volumes of an ice-cold buffer medium consisting of 10 mM Tris.HCl (pH 7.4 at 22° C.) and containing 1.0 mM EDTA and 0.2M sucrose. Unless otherwise indicated, all subsequent operations are done at 4° C. […] The homogenate is centrifuged first at low speed (3,000×g) for 10 min. […] This P2 pellet is discarded and the liquid phase is carefully decanted off in clean centrifuge tubes and recentrifuged at high speed (100,000×g) for 60 min. The translucent final pellet is harvested and combined in a small volume (20-50.0 ml) of 50.0 mM Tris.HCl buffer, pH 7.2. […] The pelleted membrane is reconstituted in 50.0 mM Tris.HCl buffer containing 0.1 mM of phenylmethylsulfonyl fluoride (PMSF) to give approximately a protein concentration of 2.5 mg per ml of tissue suspension. The membrane preparation is finally aliquoted in 1.0 ml volumes and stored at -70° C. until use in the binding assays.
In competition studies, experimental compounds are diluted in dimethylsulfoxide (DMSO) and added in 20 ul to wells before the introduction of tissue membranes. […] Assays are performed in triplicate. The wells are left undisturbed for 60 min. at room temperature. […] The filters are removed from the filter grid and counted in a Parkard® Cobra Gamma Counter for 1 min. […] The binding data are analyzed by the non-linear interactive "LUNDON-1" program (LUNDON SOFTWARE Inc., Cleveland, Ohio U.S.A.).

**Q.** Which Specific binding does the source give for “[^125 I](Sar^1,Ile^8) AngII [reference compound]” here?
**A.** The Specific binding was “greater than 90%”.
